# Source: ChEMBL document CHEMBL5728837, “Non-fused tricyclic compounds” (2021)
# Assay: YAP Reporter Assay: HEK293T cells stably transfected with 8XTBD luciferase reporter and pRLTK in 384-well plates were treated with the test compounds, starting from 3 μM (final concentration in assay plate), 1:3 dilution, and 10 points in quadruplicates. Post 24-hr incubation with compounds at 37° C. and 5% CO2, cells were lysed and 8XTBD-driven firefly luciferase and control TK-driven renilla luciferase activities were measured using Promega Dual-Luciferase Reporter Assay System.Reagents: The reagents used for this study are: DMEM: Invitrogen #11960077, Dual-Glo Luciferase Assay System: Promega-E2980, Puromycin Dihydrochloride: Invitrogen-A1113803, 384-well plate: PerkinElmer-6007480, L-GLUTAMINE: Invitrogen-25030164, Hygromycin B: Invitrogen-10687010, and Penicillin-Streptomycin: Merk-TMS-AB2-CMedia: The media used for this assay were: Culture Medium: DMEM+1 ug/mL puromycin+200 ug/mL hygromycin (with 10% FBS+1 mM L-glutamine); and Assay Medium: DMEM (with 10% FBS+1 mM L-glutamine+1× P/S).Cell Plating: The appropriate media was warmed at 37° C. by water bath: Culture Medium, Assay Medium, 1*D-PBS, 0.05% trypsin-EDTA. The cells were trypsinized after removing all media, then washed with 1*sterile D-PBS and then with 2 ml 0.05% trypsin-EDTA. The cells were then incubated at RT for one minute. Then 10 ml/75 cm2 flask Assay Medium was added to each flask. Using a 10 ml pipette, the cells were then gently resuspended in the media, until the clumps completely disappeared. The cells were then transferred into 50 ml centrifuge tubes and were centrifuged at 800 rpm for 5 mins. The medium was removed and the cells were resuspended with Assay Medium. An aliquot of cells was used to count the cell density (cells/nil). The cell suspension was then diluted with Assay Medium to a concentration of 6×10^4 cells/ml. 50 ul cells suspension was then plated to 384-well plate (PerkinElmer-6007480), 3×10^3 cells/well and the cells were incubated in an incubator at 37° C., 5% CO2.Compound Treatment: In the afternoon (incubation of the plate with 3-4 hrs), the test compounds were added by Echo, starting from 3 uM (final concentration in the assay plate), 1:3 dilution, 10 points, quadruplicates. The plate was placed at 37° C., 5% CO2 incubator for 24 hrs.Detection: The Dual-Glo Luciferase Reagent was prepared by transferring the contents of one bottle of Dual-Glo Luciferase Buffer to one bottle of Dual-Glo Luciferase Substrate to create the Dual-Glo Luciferase Reagent. Mixing was performed by inversion until the substrate was thoroughly dissolved. After mixing, the reagent was aliquoted into 15 ml tubes. In the afternoon (24 hrs post compound treatment), the DMEM+ medium in the 384 well plates were aspirated by Microplate Washer.Measuring firefly luciferase activity: 20 ul Dual-Glo Luciferase Reagent was added to the 384-well plates. The plates were protected from light to prevent interference with the assay. The plates were shaken for 1 min followed centrifuging plates at 1000 rpm for 30 seconds. After waiting at least 10 minutes, the firefly luminescence was measured by Envision.Measuring renilla luciferase activity: 20 ul Stop-Glo Reagent was added to the 384-well plates. The plates were shaken for lmin and then centrifuged at 1000 rpm for 30 seconds. After waiting at least 10 minutes, the renilla luminescence was measured by Envision.
# Settings: not given
row,Structure (SMILES),IC50
1,OCCn1nnc(-c2ccccc2Nc2cccc(C(F)(F)F)c2)n1,in the range around 3 µM

# Same assay, conditions: HEK-293T, 24 h
row,Structure (SMILES),IC50
1,OC1(Cn2nnc(-c3ccccc3Nc3ccc(C(F)(F)F)cc3)n2)CNC1,in the range around 0.55 µM
2,OC1(Cn2nnc(-c3ccccc3Nc3ccc(C(F)(F)F)cc3)n2)CCCOC1 (configuration not stated),in the range around 0.55 µM
3,FCCCn1nnc(-c2ccccc2Nc2ccc(C(F)(F)F)cc2)n1,in the range around 0.55 µM
4,FC(F)(F)c1ccc(Nc2ccccc2-c2nnn(C3CCOC3)n2)cc1 (configuration not stated),< 0.1 µM
5,O=C(Cn1nnc(-c2ccccc2Nc2ccc(C(F)(F)F)cc2)n1)C1CC1,in the range around 0.55 µM
6,OCCCn1nnc(-c2ccccc2Nc2ccc(C(F)(F)F)cc2)n1,< 0.1 µM
7,OCCn1nnc(-c2ccccc2Nc2ccc(SC(F)F)cc2)n1,in the range around 0.55 µM
8,OCCn1nnc(-c2ccc(Cl)cc2Nc2ccc(C(F)(F)F)cc2)n1,< 0.1 µM
9,CC(=O)NCCCn1nnc(-c2ccccc2Nc2ccc(C(F)(F)F)cc2)n1,in the range around 0.55 µM
10,OCCn1nnc(-c2ccccc2Nc2ccc(C(F)(F)F)c(Cl)c2)n1,< 0.1 µM
11,FC(F)OCCn1nnc(-c2ccccc2Nc2ccc(C(F)(F)F)cc2)n1,in the range around 0.55 µM
12,NS(=O)(=O)Cn1nnc(-c2ccccc2Nc2ccc(C(F)(F)F)cc2)n1,in the range around 0.55 µM
13,CC(=O)N1CC(O)(Cn2nnc(-c3ccccc3Nc3ccc(C(F)(F)F)cc3)n2)C1,in the range around 0.55 µM
14,OC1(Cn2nnc(-c3ccccc3Nc3ccc(C(F)(F)F)cc3)n2)CCOC1 (configuration not stated),< 0.1 µM
15,Cn1nc(-c2ccccc2Nc2ccc(C(F)(F)F)cc2)cc1CCO,in the range around 3 µM
16,CC(C)C(=O)Cn1nnc(-c2ccccc2Nc2ccc(C(F)(F)F)cc2)n1,in the range around 0.55 µM
17,OCC(CO)n1nnc(-c2ccccc2Nc2ccc(C(F)(F)F)cc2)n1,< 0.1 µM
18,OC1(Cn2nnc(-c3ccccc3Nc3ccc(C(F)(F)F)cc3)n2)CCCCC1,in the range around 0.55 µM
19,OCCn1nnc(-c2cnccc2Nc2ccc(C(F)(F)F)cc2)n1,in the range around 3 µM
20,OCCn1nnc(-c2ccccc2Nc2cccc(OC(F)(F)F)c2)n1,in the range around 0.55 µM
21,CN(C)CCCn1nnc(-c2ccccc2Nc2ccc(C(F)(F)F)cc2)n1,in the range around 3 µM
22,FC(F)(F)c1ccc(Nc2ccccc2-c2nnn(CC3CCC3)n2)cc1,in the range around 0.55 µM

row,Structure (SMILES),IC50
1,O[C@H]1CNC[C@@H]1n1nnc(-c2ccccc2Nc2ccc(C(F)(F)F)cc2)n1,in the range around 0.55 µM
2,NCCCn1nnc(-c2ccccc2Nc2ccc(C(F)(F)F)cc2)n1,in the range around 0.55 µM
3,FC(F)(F)Oc1ccc(Nc2ccccc2-c2nnn(Cc3ccccn3)n2)cc1,in the range around 3 µM
4,CN(C)C(=O)Cn1nnc(-c2ccccc2Nc2ccc(C(F)(F)F)cc2)n1,in the range around 0.55 µM
5,OCCn1nnc(-c2cccc(F)c2Nc2ccc(C(F)(F)F)cc2)n1,< 0.1 µM
6,FC(F)(F)c1ccc(Nc2ccccc2-c2nnn(Cc3cccnc3)n2)cc1,in the range around 0.55 µM
7,OC1(Cn2nnc(-c3ccccc3Nc3ccc(C(F)(F)F)cc3)n2)CCCN(c2ccccc2)C1 (configuration not stated),in the range around 0.55 µM
8,FC(F)(F)c1ccc(Nc2ccccc2-c2nnn(C3CCNC3)n2)cc1 (configuration not stated),in the range around 0.55 µM
9,OC1(Cn2nnc(-c3ccccc3Nc3ccc(C(F)(F)F)cc3)n2)CCCC1,< 0.1 µM
10,OCCn1nnc(-c2cc(OC(F)(F)F)ccc2Nc2ccc(C(F)(F)F)cc2)n1,in the range around 0.55 µM
11,CNC(=O)Cn1nnc(-c2ccccc2Nc2ccc(C(F)(F)F)cc2)n1,< 0.1 µM
12,[O-][S+]1CC(O)(Cn2nnc(-c3ccccc3Nc3ccc(C(F)(F)F)cc3)n2)C1 (configuration not stated),in the range around 0.55 µM
13,CC(=O)N1CCC(O)(Cn2nnc(-c3ccccc3Nc3ccc(C(F)(F)F)cc3)n2)C1 (configuration not stated),in the range around 0.55 µM
14,CNCCn1nnc(-c2ccccc2Nc2ccc(C(F)(F)F)cc2)n1,in the range around 0.55 µM
15,OCCn1nnc(-c2c(F)cccc2Nc2ccc(C(F)(F)F)cc2)n1,< 0.1 µM
16,CC(=O)N1CCCC(O)(Cn2nnc(-c3ccccc3Nc3ccc(C(F)(F)F)cc3)n2)C1 (configuration not stated),in the range around 0.55 µM
17,OCCn1nnc(-c2cc(Br)ccc2Nc2ccc(C(F)(F)F)cc2)n1,< 0.1 µM
18,OCCn1nnc(-c2ccc(F)cc2Nc2ccc(C(F)(F)F)cc2)n1,< 0.1 µM
19,CO[C@H](C)[C@@H](C)n1nnc(-c2ccccc2Nc2ccc(C(F)(F)F)cc2)n1,in the range around 0.55 µM
20,OC1(Cn2nnc(-c3ccccc3Nc3ccc(C(F)(F)F)cc3)n2)CCNC1 (configuration not stated),in the range around 0.55 µM
21,OCCn1nnc(-c2ccccc2Nc2ccc(F)cc2)n1,in the range around 0.55 µM
22,COCC(C)n1nnc(-c2ccccc2Nc2ccc(C(F)(F)F)cc2)n1 (configuration not stated),< 0.1 µM

row,Structure (SMILES),IC50
1,FC(F)(F)c1ccc(Nc2ccccc2-c2nnn(C3COC3)n2)cc1,< 0.1 µM
2,NS(=O)(=O)NCCn1nnc(-c2ccccc2Nc2ccc(C(F)(F)F)cc2)n1,in the range around 3 µM
3,CO[C@@H](C)[C@H](C)n1nnc(-c2ccccc2Nc2ccc(C(F)(F)F)cc2)n1,< 0.1 µM
4,FC(F)(F)c1ccc(Nc2ccccc2-c2nnn(C3CCCOC3)n2)cc1 (configuration not stated),in the range around 0.55 µM
5,CCOC(=O)Cn1nnc(-c2ccccc2Nc2ccc(F)cc2)n1,in the range around 0.55 µM
6,CN(C)CCn1nnc(-c2ccccc2Nc2ccc(C(F)(F)F)cc2)n1,in the range around 0.55 µM
7,CC(C)(C)OC(=O)N1CCCC(O)(Cn2nnc(-c3ccccc3Nc3ccc(C(F)(F)F)cc3)n2)C1 (configuration not stated),in the range around 3 µM
8,OCCn1nnc(-c2cc(C3CC3)ccc2Nc2ccc(C(F)(F)F)cc2)n1,< 0.1 µM
9,CO[C@@H](C)[C@@H](C)n1nnc(-c2ccccc2Nc2ccc(C(F)(F)F)cc2)n1,< 0.1 µM
10,CCOC(=O)Cn1cc(-c2ccccc2Nc2ccc(C(F)(F)F)cc2)c(C)n1,in the range around 0.55 µM
11,CCOC(=O)Cn1cc(-c2ccccc2Nc2cccc(C(F)(F)F)c2)cn1,in the range around 0.55 µM
12,O[C@@H]1CCC[C@@H]1n1nnc(-c2ccccc2Nc2ccc(C(F)(F)F)cc2)n1,in the range around 0.55 µM
13,COCCn1nnc(-c2ccccc2Nc2cccc(C(F)(F)F)c2)n1,in the range around 3 µM
14,C[C@@H](O)[C@H](C)n1nnc(-c2ccccc2Nc2ccc(C(F)(F)F)cc2)n1,< 0.1 µM
15,C[C@H](O)[C@@H](C)n1nnc(-c2ccccc2Nc2ccc(C(F)(F)F)cc2)n1,< 0.1 µM
16,OC1(Cn2nnc(-c3ccccc3Nc3ccc(C(F)(F)F)cc3)n2)CSC1,< 0.1 µM
17,C[C@H](c1ccccc1)N1C(=O)OC[C@H]1Cn1nnc(-c2ccccc2Nc2ccc(C(F)(F)F)cc2)n1,in the range around 0.55 µM
18,FC(F)(F)c1ccc(Nc2ccccc2-c2nnn(CCOC3CCNCC3)n2)cc1,in the range around 0.55 µM
19,OCCn1nnc(-c2ccccc2Nc2cc(Cl)c(Cl)c(Cl)c2)n1,in the range around 3 µM
20,OCCn1nnc(-c2ccccc2Nc2cccc(C(F)(F)F)c2)n1,in the range around 3 µM
21,CC(N)Cn1nnc(-c2ccccc2Nc2ccc(C(F)(F)F)cc2)n1 (configuration not stated),in the range around 0.55 µM
22,CCOC(=O)Cn1ncc(-c2ccccc2Nc2cccc(C(F)(F)F)c2)c1C,in the range around 3 µM
